Results: ChEMBL document CHEMBL3507680, “University of Dundee, Gates Library screen for HepG2 cell viability”

Assay: Human HepG2 cell viability assay in 384 well format
Format: toxicity, cell-based
Parameters: dose 125 nL, time 70.5 hour; concentration not given beside the values
Conditions: HepG2 cells, read-out: Inhibition

In order of rising cytotoxicity at 70.5 h:
1. CC1CCCN(Cc2ccnc(-c3cccnc3)n2)C1 (stereo not given)  -13%
2. CCNC(=O)CN(CC)S(=O)(=O)c1c(Br)cc2[nH]c(=O)oc2c1Cl  -12.3%
3. O=c1c2sccc2nc2n1CCN(Cc1ccccc1C(F)(F)F)CC2  -10.4%
4. Nc1cc(-c2cccs2)nn(CC(=O)NCC2CCCCC2)c1=O  -10%
5. Cc1noc(C)c1-c1cncc(C2CCCN2Cc2nccs2)n1 (stereo not given)  -9.87%
6. COCCCNC(=O)Nc1c(C)cccc1C(C)C  -9.85%
7. Cc1nc[nH]c1CN1CCN(C2CCOCC2)CC(C(N)=O)C1 (stereo not given)  -9.69%
8. Cc1cccnc1C(=O)N1C[C@@H]2CC[C@H](Oc3cccc(F)c3)[C@@H]2C1  -8.25%
9. Cc1nn(C)c(C)c1-c1cnc(C2CCCN(C)C2)cn1 (stereo not given)  -7.8%
10. CC(C)S(=O)(=O)N1CCC(c2cc3n(n2)[C@@H](C(F)(F)F)C[C@@H](C)N3)CC1  -7.62%
11. O=c1c2sccc2nc2n1CCN(Cc1cc(F)ccc1F)CC2  -7.47%
12. Cc1ccc(-n2c(SCC(=O)O)nnc2-c2ccccc2)cc1  -7.44%
13. Cc1ccc(-n2c(SCC(=O)O)nnc2-c2cccc(C)c2)cc1  -7.34%
14. Cc1ccc2c(c1)C(=O)NCC1(CCN(C(=O)c3cc(C)no3)CC1)O2  -7.27%
15. Cc1ccc2c(c1)C(=O)NCC1(CCN(C(=O)c3ccccn3)CC1)O2  -7.17%
16. Cc1cc(C[C@@H]2COC[C@H]2NCc2ccc(C)c(C)c2)on1  -7.12%
17. Cc1cc(C2CCCCCN2Cc2cn(C)nc2C)no1 (stereo not given)  -6.86%
18. CC(=O)N1CCCN(CCCSc2ccccc2Cl)CC1  -6.8%
19. O=C(c1cscn1)N1CCC(O)(Cn2ccc3ccncc32)CC1  -6.76%
20. CC(=O)N1CCCN(CCCSCc2ccccc2)CC1  -6.67%
21. CC(C)N(Cc1ccccc1)C(=O)c1cc(C2CCCN2C)ccn1 (stereo not given)  -6.6%
22. COc1ccccc1CC1CCCN(C(=O)c2nccnc2N)C1 (stereo not given)  -6.5%
23. CCCNC(=O)c1cncc(CC2CCCN(C)C2)c1 (stereo not given)  -6.34%
24. CC(c1ccc(F)cc1F)N1CCN(CCC(=O)O)CC1 (stereo not given)  -6.34%
25. CCc1cc(C(F)(F)F)c2c(C3CCN(C(=O)COC)CC3)noc2n1  -6.22%
26. Cc1nnc(CN(C)CC(=O)NC(C)(C)c2ccc(F)cc2)n1C  -6.19%
27. O=C(C1CCC1)N1CCC(c2ncc3c(n2)CCNC3)CC1  -6.1%
28. O=C(C1CCOCC1)N1CCC(O)(Cn2ccc3ccncc32)CC1  -6.06%
29. Cn1ccc(C(=O)Nc2nc(-c3ccc4c(c3)CCO4)cs2)cc1=O  -6.04%
30. NCc1cnn(-c2ccccc2C(=O)NCCc2ccccn2)c1  -6.02%
31. OC(CNCCc1nnc2ccccn12)c1ccc2c(c1)OCO2 (stereo not given)  -5.97%
32. Cc1ccc(CC(=O)N(C)CC2(O)CCCN(c3ccccn3)C2)s1 (stereo not given)  -5.95%
33. CNC(=O)N1CCOC(C)(c2cnn(C)c2)C1 (stereo not given)  -5.87%
34. Cc1cccc(C(=O)N2C[C@@H]3CC[C@H](Oc4cccc(F)c4)[C@@H]3C2)n1  -5.82%
35. O=S(=O)(NCCCn1cncn1)c1ccc2c(c1)CCC2  -5.6%
36. c1cnc(-c2cnc(N3CCCCC3)nc2C2CCCO2)cn1 (stereo not given)  -5.56%
37. CCc1cc(C(=O)N2CCC(O)(Cn3ccc4ccncc43)CC2)no1  -5.47%
38. Cc1ccc(CNCc2cc(Br)c3c(c2)OCO3)cc1  -5.25%
39. Cc1noc(C)c1-c1cncc(C2CCCN2Cc2cn(C)cn2)n1 (stereo not given)  -5.21%
40. COCCC(=O)N1CCCC(c2noc3nc(C)cc(C(F)(F)F)c23)C1 (stereo not given)  -5.21%
41. COC(=O)C(C)CN(C)S(=O)(=O)c1c(Br)cc2[nH]c(=O)oc2c1Cl (stereo not given)  -4.98%
42. N#Cc1cccc(CN2CCCC2Cn2cncn2)c1 (stereo not given)  -4.98%
43. CCC1(CC)CC(=O)N(CC(O)c2ccc(Cl)cc2)C1=O (stereo not given)  -4.91%
44. N#Cc1cc(F)ccc1CN1CCCCC1Cn1cncn1 (stereo not given)  -4.9%
45. O=c1ccn([C@H]2CCN(Cc3ncc[nH]3)CC[C@@H]2O)c(=O)[nH]1  -4.85%
46. COC(=O)c1cc(NCc2cscn2)ccc1C  -4.82%
47. CCN(CCCNC(=O)Nc1ccccc1C(C)C)S(C)(=O)=O  -4.67%
48. Cc1ccc2c(c1)C(=O)NCC1(CCN(C(=O)c3ccnn3C)CC1)O2  -4.65%
49. Cc1ccsc1CN1CCc2nc3ccsc3c(=O)n2CC1  -4.51%
50. CC(C)(C)OC(=O)N[C@H]1CCN(C(=O)c2cc(Cl)c[nH]2)C1  -4.47%
51. CC(=O)N1CCC(Cc2cnc(C(=O)N3CCCC3)cn2)C1 (stereo not given)  -4.28%
52. CCc1nnc(Nc2cccc(C3CCN(C(=O)CO)CC3)n2)s1  -4.24%
53. CC(C)c1ncc(CN2CCC(CO)C2)cn1 (stereo not given)  -4.22%
54. CN1CCc2nc(C3CCCCN3Cc3ccccc3Cl)ncc2C1 (stereo not given)  -4.18%
55. NCCn1nc(C2CCN(Cc3ccccc3Cl)C2)c2nccnc21 (stereo not given)  -4.18%
56. CSCC[C@H]1CN2CCC[C@H]2CN1Cc1cn(C)nc1C  -3.69%
57. COc1ccc(CNCc2cc(Br)c3c(c2)OCO3)cc1  -3.3%
58. Cc1ccc(S(=O)(=O)N2C[C@H]3C[C@H](NC(=O)c4cc(C)no4)[C@H]3C2)cc1  -3.09%
59. CCc1cccc(C)c1NC(=O)NCCCN(CC)S(C)(=O)=O  -3.01%
60. Cc1ccc(CN2CC[C@H](O)[C@@H](n3ccc(=O)[nH]c3=O)CC2)cc1  -2.58%
61. COCC(C)NC(=O)c1sccc1-n1cnnn1 (stereo not given)  -2.58%
62. CN(Cc1cc(Cl)cc2cccnc12)CC1CCN(CCO)CC1  -2.37%
63. C[S+]([O-])c1cccc(NC(=O)N[C@H](CCO)c2ccccc2)c1 (stereo not given in full)  -2.3%
64. CCc1cnc(CN(C)C(=O)Nc2cnc3c(c2)c(C)nn3C)s1  -2.27%
65. CC(c1nc(-c2ccccc2)no1)N1CCc2c(ncn2C2CC2)C1 (stereo not given)  -2.24%
66. O=C(CCC1CCCC1)N1CCCC(c2ncc3c(n2)CCNC3)C1 (stereo not given)  -1.37%
67. COCCNC(=O)c1ccccc1-n1cc(CN)cn1  -1.19%
68. Cc1nc(C)c(C(=O)N2CCC(O)(Cn3ccc4ccncc43)CC2)s1  1.41%
69. Fc1ccc(CN2CCCC(c3nccnc3-n3ccnc3)C2)cc1 (stereo not given)  3.95%
70. CCNC(=O)c1ccc(NC(=O)N(C)Cc2cccn2C)c(C)c1  5.27%
71. N#Cc1ccc(CN2CCCC(Cn3cncn3)C2)c(F)c1 (stereo not given)  8.28%
72. CCN(Cc1ccccc1)C(=O)c1cc(C2CCCN2C)ccn1 (stereo not given)  10.8%
73. N#Cc1ccc(CN2CCCCC2Cn2cncn2)cc1 (stereo not given)  11.7%
74. COCC(=O)N1CCC(c2cc(C(F)(F)F)c3c(C)noc3n2)CC1  12.4%
75. Cc1cc(-c2cc(N)c(=O)n(CC(=O)NCC3CCCCC3)n2)c(C)o1  12.5%
76. COCC(=O)N1CCCC(c2noc3nc(C)cc(C(F)(F)F)c23)C1 (stereo not given)  12.8%
77. CSCC[C@@H]1CN2CCC[C@H]2CN1Cc1cn(C)nc1C  19.2%
78. Cc1cc(C[C@@H]2COC[C@H]2NCc2ccc(Cl)c(Cl)c2)on1  19.8%
79. Cc1ccc(S(=O)(=O)N2C[C@H]3C[C@H](NC(=O)C(C)C)[C@H]3C2)cc1  20.3%
80. Cc1nc(C2CN(C)CCO2)cc(N2CCSCC2)n1 (stereo not given)  26.1%
